How the values were obtained:
Assay in all cases: Nanosyn kinase profiling
Type in all cases: biochemical
Conditions in all cases: read-out: Percentage inhibition; for inhibition at 0.1 µM: 0.1 µM inhibitor; for inhibition at 1 µM: 1 µM inhibitor
[1] = target: T1, MARK4 (Homo sapiens, UniProt Q96L34)
T1 construct: purchased Nanosyn (enzymatic panel); SGC in-house recombinant human kinases (DSF panel); Invitrogen (ALK1-6)
T1 sequence (Q96L34 1-752): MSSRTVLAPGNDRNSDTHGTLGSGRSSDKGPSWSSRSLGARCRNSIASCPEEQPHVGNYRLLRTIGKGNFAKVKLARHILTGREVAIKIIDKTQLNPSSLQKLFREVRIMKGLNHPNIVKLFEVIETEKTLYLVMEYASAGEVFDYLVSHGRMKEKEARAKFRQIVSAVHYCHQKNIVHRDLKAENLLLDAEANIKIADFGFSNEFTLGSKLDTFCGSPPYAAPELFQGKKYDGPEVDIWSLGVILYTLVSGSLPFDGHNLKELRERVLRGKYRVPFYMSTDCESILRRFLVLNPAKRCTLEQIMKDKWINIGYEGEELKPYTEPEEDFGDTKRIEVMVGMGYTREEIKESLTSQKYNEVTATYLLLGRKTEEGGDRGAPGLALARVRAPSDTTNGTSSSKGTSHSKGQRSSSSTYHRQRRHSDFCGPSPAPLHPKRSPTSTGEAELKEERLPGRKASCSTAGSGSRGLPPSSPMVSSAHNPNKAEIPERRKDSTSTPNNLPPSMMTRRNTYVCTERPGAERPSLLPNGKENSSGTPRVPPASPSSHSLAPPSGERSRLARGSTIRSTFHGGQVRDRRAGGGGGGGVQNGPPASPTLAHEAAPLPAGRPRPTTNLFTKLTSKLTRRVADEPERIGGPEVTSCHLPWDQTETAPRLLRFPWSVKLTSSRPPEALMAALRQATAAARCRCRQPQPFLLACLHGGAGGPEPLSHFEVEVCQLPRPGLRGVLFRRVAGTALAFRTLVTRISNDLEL
Summary of the method: (§1)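 Percent inhibition of each kinase was measured with the inhibitor at 0.1 µM and at 1 µM, as part of a 200-kinase human selectivity panel.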

[2] = target: T2, CDK6/cycD3 (Homo sapiens, UniProt Q00534)
T2 construct: purchased Nanosyn (enzymatic panel); SGC in-house recombinant human kinases (DSF panel); Invitrogen (ALK1-6)
Summary of the method: as §1

[3] = target: T3, GRK7 (Homo sapiens, UniProt Q8WTQ7)
T3 construct: purchased Nanosyn (enzymatic panel); SGC in-house recombinant human kinases (DSF panel); Invitrogen (ALK1-6)
T3 sequence (Q8WTQ7 1-553): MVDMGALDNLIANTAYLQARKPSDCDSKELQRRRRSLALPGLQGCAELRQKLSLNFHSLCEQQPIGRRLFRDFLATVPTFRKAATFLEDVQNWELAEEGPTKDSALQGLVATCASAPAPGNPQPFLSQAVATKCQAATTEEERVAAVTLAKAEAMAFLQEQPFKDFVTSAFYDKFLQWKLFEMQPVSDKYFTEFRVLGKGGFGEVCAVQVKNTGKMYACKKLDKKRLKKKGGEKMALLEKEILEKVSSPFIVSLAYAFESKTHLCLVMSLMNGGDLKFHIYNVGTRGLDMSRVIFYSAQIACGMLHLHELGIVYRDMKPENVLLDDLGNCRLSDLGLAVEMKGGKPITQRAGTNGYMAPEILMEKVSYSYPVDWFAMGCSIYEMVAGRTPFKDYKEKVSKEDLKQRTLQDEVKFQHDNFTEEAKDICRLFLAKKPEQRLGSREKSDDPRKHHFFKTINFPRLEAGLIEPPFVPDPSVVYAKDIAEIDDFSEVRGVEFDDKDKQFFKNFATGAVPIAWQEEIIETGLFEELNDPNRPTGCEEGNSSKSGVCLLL
Summary of the method: as §1

[4] = target: T4, BRSK2 (Homo sapiens, UniProt Q8IWQ3)
T4 construct: purchased Nanosyn (enzymatic panel); SGC in-house recombinant human kinases (DSF panel); Invitrogen (ALK1-6)
T4 sequence (Q8IWQ3 1-736): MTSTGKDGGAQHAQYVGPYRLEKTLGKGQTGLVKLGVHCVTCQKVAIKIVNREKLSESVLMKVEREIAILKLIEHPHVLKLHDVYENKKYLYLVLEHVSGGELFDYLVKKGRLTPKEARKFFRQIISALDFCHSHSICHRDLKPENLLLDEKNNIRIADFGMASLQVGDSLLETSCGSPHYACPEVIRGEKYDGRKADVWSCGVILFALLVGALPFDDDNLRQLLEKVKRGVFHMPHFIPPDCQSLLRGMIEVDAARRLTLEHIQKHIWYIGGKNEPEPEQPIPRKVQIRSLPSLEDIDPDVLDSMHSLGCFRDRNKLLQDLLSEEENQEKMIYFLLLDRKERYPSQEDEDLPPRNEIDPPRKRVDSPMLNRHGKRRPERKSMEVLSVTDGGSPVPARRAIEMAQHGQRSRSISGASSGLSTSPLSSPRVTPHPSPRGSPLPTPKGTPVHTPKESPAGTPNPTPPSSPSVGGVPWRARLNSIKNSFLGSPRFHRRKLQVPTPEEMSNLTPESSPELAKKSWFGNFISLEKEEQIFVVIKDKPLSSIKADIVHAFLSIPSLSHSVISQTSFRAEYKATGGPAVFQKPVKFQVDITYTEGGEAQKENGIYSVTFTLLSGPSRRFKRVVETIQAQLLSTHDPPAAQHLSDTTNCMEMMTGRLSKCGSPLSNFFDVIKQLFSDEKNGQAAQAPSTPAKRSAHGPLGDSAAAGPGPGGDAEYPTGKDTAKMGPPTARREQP
Summary of the method: as §1

[5] = target: T5, PKCη (Homo sapiens, UniProt P24723)
T5 construct: purchased Nanosyn (enzymatic panel); SGC in-house recombinant human kinases (DSF panel); Invitrogen (ALK1-6)
Summary of the method: as §1

[6] = target: T6, NEK7 (Homo sapiens, UniProt Q8TDX7)
T6 construct: purchased Nanosyn (enzymatic panel); SGC in-house recombinant human kinases (DSF panel); Invitrogen (ALK1-6)
Summary of the method: as §1

T5 sequence (P24723 whole entry): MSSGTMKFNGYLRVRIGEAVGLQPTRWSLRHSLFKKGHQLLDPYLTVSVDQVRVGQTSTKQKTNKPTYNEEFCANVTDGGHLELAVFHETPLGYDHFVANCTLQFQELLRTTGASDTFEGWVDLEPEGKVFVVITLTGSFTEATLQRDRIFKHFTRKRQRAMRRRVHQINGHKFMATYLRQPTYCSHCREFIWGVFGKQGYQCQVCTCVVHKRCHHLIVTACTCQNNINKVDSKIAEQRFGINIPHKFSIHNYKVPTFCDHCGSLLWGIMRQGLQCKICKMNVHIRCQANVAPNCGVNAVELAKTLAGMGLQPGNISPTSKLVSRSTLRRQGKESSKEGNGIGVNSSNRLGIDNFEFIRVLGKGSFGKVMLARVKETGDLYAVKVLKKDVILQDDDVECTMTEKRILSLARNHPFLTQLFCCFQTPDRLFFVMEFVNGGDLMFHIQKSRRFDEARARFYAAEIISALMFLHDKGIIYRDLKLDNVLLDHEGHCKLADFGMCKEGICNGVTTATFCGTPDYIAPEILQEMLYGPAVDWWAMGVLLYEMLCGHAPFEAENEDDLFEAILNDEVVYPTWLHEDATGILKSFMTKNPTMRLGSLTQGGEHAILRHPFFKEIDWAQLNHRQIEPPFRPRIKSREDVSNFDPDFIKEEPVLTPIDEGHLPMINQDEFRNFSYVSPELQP
T2 sequence (Q00534 whole entry): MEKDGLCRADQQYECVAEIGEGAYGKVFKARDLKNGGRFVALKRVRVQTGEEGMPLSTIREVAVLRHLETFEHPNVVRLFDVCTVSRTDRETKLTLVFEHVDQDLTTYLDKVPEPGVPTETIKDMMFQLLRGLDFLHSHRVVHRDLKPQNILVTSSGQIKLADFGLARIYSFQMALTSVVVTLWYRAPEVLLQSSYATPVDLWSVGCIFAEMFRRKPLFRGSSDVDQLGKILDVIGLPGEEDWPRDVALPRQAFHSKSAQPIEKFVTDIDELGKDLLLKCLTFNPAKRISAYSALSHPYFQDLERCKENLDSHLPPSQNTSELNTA
T2 sequence (P30281 whole entry partner): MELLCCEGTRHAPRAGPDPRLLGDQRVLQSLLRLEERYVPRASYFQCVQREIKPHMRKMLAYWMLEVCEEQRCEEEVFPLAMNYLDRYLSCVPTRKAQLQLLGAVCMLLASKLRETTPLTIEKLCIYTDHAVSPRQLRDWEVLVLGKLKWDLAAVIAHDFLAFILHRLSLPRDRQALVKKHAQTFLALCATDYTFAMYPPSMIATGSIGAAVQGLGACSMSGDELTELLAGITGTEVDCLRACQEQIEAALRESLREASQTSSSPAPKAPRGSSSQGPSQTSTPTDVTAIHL
T6 sequence (Q8TDX7 whole entry): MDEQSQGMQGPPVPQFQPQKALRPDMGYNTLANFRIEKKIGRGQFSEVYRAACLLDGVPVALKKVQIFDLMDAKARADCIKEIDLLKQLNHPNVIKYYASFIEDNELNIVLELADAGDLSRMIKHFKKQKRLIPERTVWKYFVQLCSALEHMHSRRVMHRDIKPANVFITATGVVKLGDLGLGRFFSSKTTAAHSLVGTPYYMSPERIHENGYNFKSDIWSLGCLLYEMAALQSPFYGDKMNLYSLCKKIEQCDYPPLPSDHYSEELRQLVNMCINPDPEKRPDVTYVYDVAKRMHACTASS

Structure (SMILES) | inhibition at 0.1 µM [1] [%] | inhibition at 1 µM [1] [%] | inhibition at 0.1 µM [2] [%] | inhibition at 1 µM [2] [%] | inhibition at 0.1 µM [3] [%] | inhibition at 1 µM [3] [%] | inhibition at 0.1 µM [4] [%] | inhibition at 1 µM [4] [%] | inhibition at 0.1 µM [5] [%] | inhibition at 1 µM [5] [%] | inhibition at 0.1 µM [6] [%] | inhibition at 1 µM [6] [%]
COc1cc(-c2cc(-c3cccc(O)c3)cnc2N)cc(OC)c1OC [K02288, 3-[6-amino-5-(3,4,5-trimethoxy-phenyl)-pyridin-3-yl]-phenol] | 2.4 | 7.2 | 1.7 | 2.8 | 0.2 | -3 | 0.9 | 2.7 | -2 | -4 | 0.2 | -3
c1ccc2c(-c3cnn4cc(-c5ccc(N6CCNCC6)cc5)cnc34)ccnc2c1 [LDN-193189] | 13 | 61 | 7.2 | 22 | 1.8 | 0.8 | 4.4 | 22 | 2.2 | -2 | 7.9 | 1.7

Source: article PMC3639963, “A New Class of Small Molecule Inhibitor of BMP Signaling” (PLoS ONE, 2013)
